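Test compounds were applied to cells in 96-well plates for 48 hours at 5 doses. GI50: concentration for 50% inhibition of growth.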 Active and inactive are the calls of the source. Cut-off read from the data, not from the text of the source: active = GI50 up to about 1.1 µM and inactive = higher.
How the values were obtained:
Assay in all cases: DTP human tumour cell line panel, 48 h
[1] = tested on: UACC-62
[2] = tested on: SK-MEL-2
[3] = tested on: Hs-578T
[4] = tested on: SNB-75
[5] = tested on: PC-3
[6] = tested on: A498
[7] = tested on: SK-MEL-5
[8] = tested on: SF-268
[9] = tested on: SN12C
[10] = tested on: HOP-62
[11] = tested on: SF-295
[12] = tested on: SR
[13] = tested on: NCI-H522
[14] = tested on: K562
[15] = tested on: Malme-3M
[16] = tested on: BT-549
[17] = tested on: NCI-H226
[18] = tested on: U-251
[19] = tested on: HCC 2998

| SMILES | GI50 [1] | GI50 [2] | GI50 [3] | GI50 [4] | GI50 [5] | GI50 [6] | GI50 [7] | GI50 [8] | GI50 [9] | GI50 [10] | GI50 [11] | GI50 [12] | GI50 [13] | GI50 [14] | GI50 [15] | GI50 [16] | GI50 [17] | GI50 [18] | GI50 [19] |
| --- | --- | --- | --- | --- | --- | --- | --- | --- | --- | --- | --- | --- | --- | --- | --- | --- | --- | --- | --- |
| O=C(OCCC12CC3CC(CC(C3)C1)C2)c1ccc(NCc2cc(O)ccc2O)cc1 | 1.61 µM (inactive) | 1.24 µM (inactive) | 0.213 µM (active) | 1.38 µM (inactive) | 0.573 µM (active) | 1.9 µM (inactive) | 1.12 µM (inactive) | 2.49 µM (inactive) | 0.719 µM (active) | 3.56 µM (inactive) | 2.02 µM (inactive) | 0.404 µM (active) | 0.148 µM (active) | 1.66 µM (inactive) | 1.85 µM (inactive) | 0.241 µM (active) | 2.92 µM (inactive) | 0.445 µM (active) | – |
| O=C1NC(=O)C(c2c[nH]c3cc(Br)ccc23)=C1c1cnc[nH]1 | – | 22.9 µM (inactive) | 52.7 µM (inactive) | > 100 µM (inactive) | 24.7 µM (inactive) | 14.5 µM (inactive) | 11 µM (inactive) | 29.5 µM (inactive) | 53.3 µM (inactive) | 19.1 µM (inactive) | 16.3 µM (inactive) | 31.3 µM (inactive) | 31.8 µM (inactive) | 25.6 µM (inactive) | > 100 µM (inactive) | 13.5 µM (inactive) | 1.47 µM (inactive) | 32.5 µM (inactive) | – |
| CN(C)CCc1c2c(nc3ccccc13)C(=O)c1cccnc1C2=O | 0.175 µM (active) | 1.17 µM (inactive) | 1.15 µM (inactive) | 0.42 µM (active) | 0.313 µM (active) | 0.597 µM (active) | 0.177 µM (active) | 0.238 µM (active) | 0.277 µM (active) | – | 0.203 µM (active) | 0.0456 µM (active) | 0.175 µM (active) | 0.154 µM (active) | 0.49 µM (active) | 0.268 µM (active) | 0.0902 µM (active) | 0.176 µM (active) | 1.35 µM (inactive) |
| NS(=O)(=O)c1nn2c(Br)c(-c3ccccc3)nc2s1 | 4.23 µM (inactive) | 4.52 µM (inactive) | 9.48 µM (inactive) | 5.18 µM (inactive) | 6.03 µM (inactive) | 17 µM (inactive) | 2.42 µM (inactive) | 8.38 µM (inactive) | 2.92 µM (inactive) | 14.9 µM (inactive) | 8.97 µM (inactive) | 1.88 µM (inactive) | 1.61 µM (inactive) | 2.2 µM (inactive) | 3.96 µM (inactive) | 2.97 µM (inactive) | 1.91 µM (inactive) | 4.59 µM (inactive) | 4.92 µM (inactive) |
| COC(=O)/C=C1\C(=O)Nc2ccc(Br)cc21 | 1.56 µM (inactive) | 0.493 µM (active) | 4.04 µM (inactive) | 1.99 µM (inactive) | 1.43 µM (inactive) | 5.22 µM (inactive) | 1.6 µM (inactive) | 3.49 µM (inactive) | 1.62 µM (inactive) | 2.06 µM (inactive) | 2.3 µM (inactive) | 0.925 µM (active) | 0.743 µM (active) | 1.77 µM (inactive) | 2.33 µM (inactive) | 1.69 µM (inactive) | 1.72 µM (inactive) | 2.03 µM (inactive) | 2.22 µM (inactive) |
| CN1C(=O)N(C)C2(CCN(CC(CC3OCCO3)c3ccc(F)cc3)CC2)C1=O (stereo unspecified) | > 100 µM (inactive) | > 100 µM (inactive) | > 100 µM (inactive) | > 100 µM (inactive) | > 100 µM (inactive) | > 100 µM (inactive) | > 100 µM (inactive) | > 100 µM (inactive) | > 100 µM (inactive) | > 100 µM (inactive) | > 100 µM (inactive) | > 100 µM (inactive) | > 100 µM (inactive) | > 100 µM (inactive) | > 100 µM (inactive) | > 100 µM (inactive) | > 100 µM (inactive) | > 100 µM (inactive) | – |
| COC1C(=O)N(SC)C1c1ccccc1Cl (stereo unspecified) | 54.8 µM (inactive) | > 100 µM (inactive) | > 100 µM (inactive) | – | 86.7 µM (inactive) | > 100 µM (inactive) | 95.5 µM (inactive) | > 100 µM (inactive) | 22.8 µM (inactive) | > 100 µM (inactive) | > 100 µM (inactive) | 18.6 µM (inactive) | 16.6 µM (inactive) | 25.9 µM (inactive) | 22.6 µM (inactive) | 23.4 µM (inactive) | – | 52.4 µM (inactive) | 14.7 µM (inactive) |

Reference: ChEMBL document CHEMBL1201862, “PubChem BioAssay data set” (2004)
